Values after ≈ are worked out from the molar mass of the structure shown. “Also recorded” adds a separate entry of the source. Like-named read-outs stand apart in the source and are kept apart here.
Legend:
Neisseria gonorrhoeae = test: Broth microdilution MIC assay, 30 isolates (Example 2); assay type: cell-based
Method: In this study, the in vitro spectrum of activity of CBD was determined against 30 isolates comprised of reference strains from the WHO, isolates from the CDC antibiotic resistance bank, and clinical isolates from the Micromyx (MMX) repository, with different resistance phenotypes. Assays were conducted following guidelines recommended by the Clinical and Laboratory Standards Institute (CLSI; 1, 2) with the exception that broth microdilution was used instead of agar dilution.
Stock solutions of all compounds were prepared on the day of testing using solvents recommended by CLSI. Stock solutions of all compounds were made at 101× the final testing concentration. CBD was supplied by Cerilliant (Round Rock, Tex.) as a 1 mg/mL methanolic solution which was stored at −20° C. after receipt. Prior to testing, using a 5 mL aliquot of the CBD methanolic solution, the methanol was dried off and the residual CBD was resuspended in 774 μL DMSO resulting in a 6.464 mg/mL solution.
The test organisms evaluated in this study consisted of Neisseria gonorrhoeae isolates from the Micromyx repository and reference isolates from the American Type Culture Collection (ATCC; Manassas, Va.), Centers for Disease Control and Prevention (CDC; Atlanta, Ga.) or the National Collection of Type Cultures (NCTC; Public Health England, Salisbury, UK). Upon initial receipt at Micromyx, the organisms were sub-cultured onto an appropriate agar medium.
(§1) Following incubation, colonies were harvested from these plates and cell suspensions prepared and frozen at −80° C. with a cryoprotectant. Prior to testing, N. gonorrhoeae isolates were streaked onto Chocolate Agar [Becton Dickinson, (BD), Sparks, Md.; Lot No. 922807]; Staphylococcus aureus ATCC 29213 tested for quality control (QC) purposes was streaked onto Trypticase Soy Agar with 5% Sheep Blood (TSA II; BD; Lot No. 9219399).
For N. gonorrhoeae, a modified medium described by the ATCC as capable of supporting the growth of N. gonorrhoeae (Neisseria peptone medium) was used for the broth microdilution MIC assay. This medium contained 15 g Oxoid Special Peptone (Lot No. 1280296; Oxoid, Hampshire, UK), 1 g corn starch (Lot No. AD-13344-14; Ward's Science; Rochester, N.Y.), 5 g NaCl (Lot No. 57897; VWR, Radnor, Pa.), 4 g K2HPO4 (Lot No. SLBT7061; Sigma), and 1 g KH2PO4 (Lot No. SLBC1921V; Sigma). After autoclaving, the medium was centrifuged at 5,000×g for 10 min, the supernatant was passed through a 0.45 μm filter, and IsoVitaleX supplement (Lot No. 8323954; BD) was added at 1% (v/v).
(§2) MIC values were determined using a broth microdilution procedure described by CLSI (1, 2). Automated liquid handlers (Multidrop 384, Labsystems, Helsinki, Finland; Biomek 2000 and Biomek FX, Beckman Coulter, Fullerton Calif.) were used to conduct serial dilutions and liquid transfers.
(§3) To prepare the drug mother plates, which would provide the serial drug dilutions for the replicate daughter plates, the wells of columns 2 through 12 of standard 96-well microdilution plates (Costar 3795) were filled with 150 μl of the designated diluent for each row of drug. The test articles and comparator compounds (300 μl at 100× the highest concentration to be tested) were dispensed into the appropriate wells in column 1. The Biomek 2000 was then used to make 2-fold serial dilutions in the mother plates from column 1 through column 11. The wells of column 12 contained no drug and served as the organism growth control wells for the assay.
(§4) The daughter plates were loaded with 190 μL per well of the appropriate test medium for the tested organism using the Multidrop 384. The daughter plates were completed on the Biomek FX instrument which transferred 2 μL of drug solution from each well of a mother plate to the corresponding well of each daughter plate in a single step. Daughter plates for the testing of anaerobes were allowed to pre-reduce in the Bactron II anaerobe chamber for 2 hr prior to inoculation.

[1] = system: Staphylococcus aureus ATCC 29213; test: Broth microdilution MIC assay, quality control strain (Example 2); assay type: cell-based; conditions: ATCC29213, S. aureus ATCC 29213 (QC), CAMHB
Method: as §1
Cation-adjusted Mueller Hinton broth (CAMHB; BD; Lot No. 9019592) was used for MIC testing of S. aureus ATCC 29213 for QC purposes.
as §2, §3, §4
A standardized inoculum of each test organism was prepared per CLSI methods (1, 2). The inoculum for each organism was dispensed into sterile reservoirs divided by length (Beckman Coulter), and the Biomek 2000 was used to inoculate the plates. Daughter plates were placed on the Biomek 2000 work surface in reverse orientation so that inoculation took place from low to high drug concentration. Anaerobic organisms were inoculated by hand in the Bactron II anaerobic chamber. Bacterial plates were then inoculated with 10 μL of the inoculum resulting in a final cell density of approximately 5×10^5 CFU/mL.
Plates were stacked 3 to 4 high, covered with a lid on the top plate and placed in plastic bags. […] The MIC was read and recorded as the lowest concentration of drug that inhibited visible growth of the organism.

[2] = 30 isolates of N. gonorrhoeae, broth microdilution, MIC distribution
[3] = 30 isolates, broth dilution assay, MIC distribution (Table 6)

## C=C(C)C1CCC(C)=CC1c1c(O)cc(CCCCC)cc1O (stereo not drawn) [CBD, 2-[3-methyl-6-(1-methylethenyl)-2-cyclohexen-1-yl]-5-pentyl-1,3-benzenediol]
Neisseria gonorrhoeae; 30 isolates of N. gonorrhoeae with different resistance phenotypes
  Effect of the resistance phenotype of the isolate on activity: not affected by the resistance phenotype of the isolate; also recorded: independent of the resistance phenotype of the tested isolate
Neisseria gonorrhoeae; [2]
  Number of isolates at MIC value 0.015 μg/mL: 0
  Number of isolates at MIC value 0.03 μg/mL: 0
  Number of isolates at MIC value 0.06 μg/mL: 0
  Number of isolates at MIC value 0.5 μg/mL: 3
  Number of isolates at MIC value 1 μg/mL: 10
  Number of isolates at MIC value 2 μg/mL: 15
  Number of isolates at MIC value 4 μg/mL: 0
  Number of isolates at MIC value 8 μg/mL: 1
  Number of isolates at MIC value >8 μg/mL: 1
  Number of isolates at MIC value >32 μg/mL: 1
  Number of isolates at MIC value […]: 0
Neisseria gonorrhoeae; [3]
  Number of isolates at MIC 0.08 μg mL^−1: 0
  Number of isolates at MIC ≤0.004 μg mL^−1: 0
Neisseria gonorrhoeae; Neisseria gonorrhoeae, ATCC49226, N. gonorrhoeae ATCC 49226 (QC), broth microdilution, read-out: MIC
  MIC: 2 µg/mL (≈ 6.36 µM)
Neisseria gonorrhoeae; Neisseria gonorrhoeae, N. gonorrhoeae CDC 0165 (CIP-R, AZI MIC 1), broth microdilution, read-out: MIC
  MIC: 8 µg/mL (≈ 25.4 µM)
Neisseria gonorrhoeae; Neisseria gonorrhoeae, N. gonorrhoeae CDC 0166 (CIP-R, AZI MIC 1), broth microdilution, read-out: MIC
  MIC: 2 µg/mL (≈ 6.36 µM)
Neisseria gonorrhoeae; Neisseria gonorrhoeae, N. gonorrhoeae CDC 0167 (CIP-S, AZI MIC 8), broth microdilution, read-out: MIC
  MIC: 1 µg/mL (≈ 3.18 µM)
Neisseria gonorrhoeae; Neisseria gonorrhoeae, N. gonorrhoeae CDC 0172 (CIP-R, AZI MIC 0.5), broth microdilution, read-out: MIC
  MIC: 2 µg/mL (≈ 6.36 µM)
Neisseria gonorrhoeae; Neisseria gonorrhoeae, N. gonorrhoeae CDC 0175 (CIP-S, AZI MIC 16), broth microdilution, read-out: MIC
  MIC: 2 µg/mL (≈ 6.36 µM)
Neisseria gonorrhoeae; Neisseria gonorrhoeae, N. gonorrhoeae CDC 0177 (CIP-S, AZI MIC 2), broth microdilution, read-out: MIC
  MIC: 2 µg/mL (≈ 6.36 µM)
Neisseria gonorrhoeae; Neisseria gonorrhoeae, N. gonorrhoeae CDC 0181 (CIP-S, AZI MIC 256), broth microdilution, read-out: MIC
  MIC: 1 µg/mL (≈ 3.18 µM)
Neisseria gonorrhoeae; Neisseria gonorrhoeae, N. gonorrhoeae CDC 0194 (CRO-NS, CIP-S, AZI MIC 0.5), broth microdilution, read-out: MIC
  MIC: 2 µg/mL (≈ 6.36 µM)
Neisseria gonorrhoeae; Neisseria gonorrhoeae, N. gonorrhoeae MMX 6921 (CIP-R), broth microdilution, read-out: MIC
  MIC: 1 µg/mL (≈ 3.18 µM)
Neisseria gonorrhoeae; Neisseria gonorrhoeae, N. gonorrhoeae MMX 6938 (CIP-S), broth microdilution, read-out: MIC
  MIC: 2 µg/mL (≈ 6.36 µM)
Neisseria gonorrhoeae; Neisseria gonorrhoeae, N. gonorrhoeae MMX 10409 (CIP-R), broth microdilution, read-out: MIC
  MIC: 2 µg/mL (≈ 6.36 µM)
Neisseria gonorrhoeae; Neisseria gonorrhoeae, N. gonorrhoeae MMX 10410 (CIP-S), broth microdilution, read-out: MIC
  MIC: 2 µg/mL (≈ 6.36 µM)
Neisseria gonorrhoeae; Neisseria gonorrhoeae, N. gonorrhoeae MMX 10447 (CIP-S), broth microdilution, read-out: MIC
  MIC: 1 µg/mL (≈ 3.18 µM)
Neisseria gonorrhoeae; Neisseria gonorrhoeae, N. gonorrhoeae MMX 10450 (CIP-S), broth microdilution, read-out: MIC
  MIC: 0.5 µg/mL (≈ 1.59 µM)
Neisseria gonorrhoeae; Neisseria gonorrhoeae, N. gonorrhoeae MMX 10452 (CIP-R), broth microdilution, read-out: MIC
  MIC: 2 µg/mL (≈ 6.36 µM)
Neisseria gonorrhoeae; Neisseria gonorrhoeae, N. gonorrhoeae MMX 10454 (CIP-R), broth microdilution, read-out: MIC
  MIC: 1 µg/mL (≈ 3.18 µM)
Neisseria gonorrhoeae; Neisseria gonorrhoeae, NCTC13477, N. gonorrhoeae NCTC 13477 (WHO F; CIP-S, AZI MIC […]), broth microdilution, read-out: MIC
  MIC: 0.5 µg/mL (≈ 1.59 µM)
Neisseria gonorrhoeae; Neisseria gonorrhoeae, NCTC13478, N. gonorrhoeae NCTC 13478 (WHO G; CIP-I, AZI MIC […]), broth microdilution, read-out: MIC
  MIC: 2 µg/mL (≈ 6.36 µM)
Neisseria gonorrhoeae; Neisseria gonorrhoeae, NCTC13479, N. gonorrhoeae NCTC 13479 (WHO K; CIP-R, AZI MIC […]), broth microdilution, read-out: MIC
  MIC: 2 µg/mL (≈ 6.36 µM)
Neisseria gonorrhoeae; Neisseria gonorrhoeae, NCTC13480, N. gonorrhoeae NCTC 13480 (WHO L; CIP-R, AZI MIC 0.5), broth microdilution, read-out: MIC
  MIC: 0.5 µg/mL (≈ 1.59 µM)
Neisseria gonorrhoeae; Neisseria gonorrhoeae, NCTC13481, N. gonorrhoeae NCTC 13481 (WHO M; CIP-R, AZI MIC […]), broth microdilution, read-out: MIC
  MIC: 1 µg/mL (≈ 3.18 µM)
Neisseria gonorrhoeae; Neisseria gonorrhoeae, NCTC13482, N. gonorrhoeae NCTC 13482 (WHO N; CIP-R, AZI MIC […]), broth microdilution, read-out: MIC
  MIC: 2 µg/mL (≈ 6.36 µM)
Neisseria gonorrhoeae; Neisseria gonorrhoeae, NCTC13483, N. gonorrhoeae NCTC 13483 (WHO O; CIP-S, AZI MIC […]), broth microdilution, read-out: MIC
  MIC: 2 µg/mL (≈ 6.36 µM)
Neisseria gonorrhoeae; Neisseria gonorrhoeae, NCTC13484, N. gonorrhoeae NCTC 13484 (WHO P; CIP-S, AZI MIC 4), broth microdilution, read-out: MIC
  MIC: > 32 µg/mL
Neisseria gonorrhoeae; Neisseria gonorrhoeae, NCTC13817, N. gonorrhoeae NCTC 13817 (WHO U; CIP-S, AZI MIC 4), broth microdilution, read-out: MIC
  MIC: 1 µg/mL (≈ 3.18 µM)
Neisseria gonorrhoeae; Neisseria gonorrhoeae, NCTC13818, N. gonorrhoeae NCTC 13818 (WHO V; CIP-R, AZI MIC >256), broth microdilution, read-out: MIC
  MIC: 1 µg/mL (≈ 3.18 µM)
Neisseria gonorrhoeae; Neisseria gonorrhoeae, NCTC13819, N. gonorrhoeae NCTC 13819 (WHO W; CIP-R, AZI MIC 0.5), broth microdilution, read-out: MIC
  MIC: 1 µg/mL (≈ 3.18 µM)
Neisseria gonorrhoeae; Neisseria gonorrhoeae, NCTC13820, N. gonorrhoeae NCTC 13820 (WHO X; CRO-NS, CIP-R, AZI MIC 0.5), broth microdilution, read-out: MIC
  MIC: 2 µg/mL (≈ 6.36 µM)
Neisseria gonorrhoeae; Neisseria gonorrhoeae, NCTC13821, N. gonorrhoeae NCTC 13821 (WHO Y; CIP-R, AZI MIC 1), broth microdilution, read-out: MIC
  MIC: 1 µg/mL (≈ 3.18 µM)
Neisseria gonorrhoeae; Neisseria gonorrhoeae, 30 isolates of N. gonorrhoeae, broth microdilution, read-out: MIC50
  MIC50: 2 µg/mL (≈ 6.36 µM)
Neisseria gonorrhoeae; Neisseria gonorrhoeae, 30 isolates of N. gonorrhoeae, broth microdilution, read-out: MIC90
  MIC90: 2 µg/mL (≈ 6.36 µM)
Neisseria gonorrhoeae; Neisseria gonorrhoeae, 30 isolates of N. gonorrhoeae, broth microdilution, read-out: MIC Mode
  MIC: 2 µg/mL (≈ 6.36 µM)
[1]
  MIC: 0.5 µg/mL (≈ 1.59 µM)
